Earlier results as cited in patent US20150010635A1, “CONTROLLED RELEASE PARTICLES, WOOD TREATMENT AGENT, AND PRODUCING METHOD THEREOF” (Japan EnviroChemicals, Ltd., priority 2011, published 2015).
Where two headings read alike, the source gives them in different places.

| Compound | water solubility (room temperature) | water solubility |
| --- | --- | --- |
| CCCC1COC(Cn2cncn2)(c2ccc(Cl)cc2Cl)O1 (stereo not shown) [Propiconazole, 1-[2-(2,4-dichlorophenyl)-4-n-propyl-1,3-dioxolane-2-ylmethyl]-1H-1,2,4-triazole] | 110 ppm | – |
| CCOc1ccc(C(C)(C)COCc2cccc(Oc3ccccc3)c2)cc1 [Ethofenprox, 2-(4-ethoxyphenyl)-2-methylpropyl-3-phenoxybenzylether] | – | 22.5 ppb |
| CCN(CC)C(=O)c1cccc(C)c1 [DEET, N,N-diethyl-m-toluamide] | 990 ppm | – |
| CC1(C)C(C=C(Cl)Cl)C1C(=O)OCc1cccc(Oc2ccccc2)c1 (stereo not drawn) [Permethrin, 3-phenoxybenzyl(1RS,3RS;1RS,3SR)-3-(2,2-dichlorovinyl)-2,2-dimethylcyclopropanecarboxylate] | – | 6 ppb |
